According to patent publication EP0871441B1, “DFMO AND TAXOL FOR THE TREATMENT OR PREVENTION OF BREAST CANCER” (Ilex Oncology, Inc., priority 1996, dated 1998):
“And” between values parts separate entries of the source, which are not always exact repeats. Equal entries are not always repeated.

What was measured:
MCF-7 cells = conditions: cited from earlier work
T-47D = conditions: estrogen-responsive; cited from earlier work
ODC = target: T1, ODC (Homo sapiens, UniProt P11926); conditions: DFMO 5 mM, MCF-7 cells; cited from earlier work
T1 construct: endogenous in cells; host or cells: MCF-7 cells, estrogen-treated
T1 sequence (P11926 1-461): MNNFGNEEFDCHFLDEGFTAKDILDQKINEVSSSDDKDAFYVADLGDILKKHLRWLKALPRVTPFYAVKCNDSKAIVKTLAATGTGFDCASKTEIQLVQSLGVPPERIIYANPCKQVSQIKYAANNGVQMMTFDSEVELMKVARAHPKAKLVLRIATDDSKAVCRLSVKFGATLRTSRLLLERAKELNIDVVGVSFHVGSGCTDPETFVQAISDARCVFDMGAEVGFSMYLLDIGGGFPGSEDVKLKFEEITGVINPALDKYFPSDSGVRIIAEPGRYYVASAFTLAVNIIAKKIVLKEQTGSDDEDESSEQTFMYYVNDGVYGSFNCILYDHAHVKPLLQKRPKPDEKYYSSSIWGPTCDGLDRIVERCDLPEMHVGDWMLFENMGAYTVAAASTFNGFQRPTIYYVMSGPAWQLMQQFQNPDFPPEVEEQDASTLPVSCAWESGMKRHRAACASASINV

BT-20 = conditions: BT-20, estrogen-unresponsive; cited from earlier work
[1] = test system: MDA-MB-231 human breast tumor; assay: Tumor growth inhibition of MDA-MB-231 breast tumor implanted s.c. in nude mice; type: in vivo; conditions: for % Tumor Growth Inhibition: with respect to control
Description: The MDA-MB-23 1 human breast tumor cell line is estrogen independent. The cell line cannot be maintained in vitro and so was maintained in vivo in host nude mice. The tumor growth inhibition studies were conducted by transplanting MDA-MB-231 tumor cells from the host nude mouse to the subject and control nude mice of the study. The MDA-MB-231 cell line can be obtained from the American Type Culture Collection as ATCC HTB 26. Nude mice are implanted s.c. by trocar with fragments of MDA-MB-231 human breast tumor cells harvested from s.c. growing tumors in nude mice hosts. When tumors are approximately 5 mm x 5 mm in size (usually about ten to twenty days after inoculation), the animals are pair-matched into treatment and control groups. Each group contains 10 tumored mice, each of which is ear-tagged and followed individually throughout the experiment. The administration of drugs or vehicle begins the day the animals are pair-matched (Day 1). The doses, route of drug administration and schedule are selected as appropriate for the study in question. If the MTD dose of an agent is not known, it is determined in an initial dosing experiment in non-tumored mice. The experiment is usually terminated when control tumors reach a size of 1 g or 2 g for the tumor models. Mice are weighed twice weekly, and tumor measurements are taken by calipers twice weekly, starting on day 1. These tumor measurements are converted to mg tumor weight by a well-known formula, and from these calculated tumor weights, the termination date can be determined. Upon termination, all mice are weighed, sacrificed, and their tumors excised. Tumors are weighed, and the mean tumor weight per group is calculated. In this model, the mean treated tumor weight/mean control tumor weight x 100% (T/C) is subtracted from 100% to give the tumor growth inhibition (TGI) for each group. The final weight of a given tumor is subtracted from its own weight at the start of treatment on day 1. This difference divided by the initial tumor weight is the % shrinkage. A mean % tumor shrinkage can be calculated from data from the mice in a group that experienced regressions. If the tumor completely disappears in a mouse, this is considered a complete regression or complete tumor shrinkage. If desired, mice with partial or total tumor regressions can be kept alive past the termination date to see whether they live to become long term, tumor-free survivors. Statistics are performed on the data using primarily the log rank-value test. In the above procedure, a reduction in the growth, number, size, metastasis and/or reoccurrence of tumor in the animal is deemed a positive response.

MCF-7 = conditions: MCF-7, estrogen-responsive; cited from earlier work
MCF-7 human breast tumor = assay: Tumor growth inhibition of MCF-7 mammary carcinoma implanted s.c. in ovariectomized nude mice; type: in vivo
Description: Female ovariectomized nude mice are implanted s.c. by trocar with 21 day release 0.25 mg estrogen pellets. The following day the mice are implanted s.c. by trocar fragments of MCF-7 mammary carcinomas harvested from s.c. growing MCF-7 tumors in nude mice hosts. When tumors are approximately 5 mm x 5 mm in size (about twenty days after inoculation), the animals are pair-matched into treatment and control groups, and the estrogen pellets removed. Each group contains 10 tumored mice, each of which is ear-tagged and followed individually throughout the experiment. The administration of drugs or vehicle begins the day the animals are pair-matched (Day 1). The doses, route of drug administration and schedule are selected as appropriate for the study in question. If the MTD dose of an agent is not known, it is determined in an initial dosing experiment in non-tumored mice. Mice are weighed twice weekly, and tumor measurements are taken by calipers twice weekly, starting on Day 1. These tumor measurements are converted to mg tumor weight by a well-known formula, L^2xW/2. The experiment is terminated when control tumors reach a size of 1 gram. […] Tumors are weighed and the mean tumor weight per group is calculated. […] A mean % tumor shrinkage can be calculated from data from the mice in a group that experienced tumor regressions. […]

[2] = DFMO alone 0.5% in drinking water, p.o., ad libitum
[3] = DFMO alone 3% in drinking water, p.o., ad libitum
[4] = taxol alone 20 mg/kg, i.p., qdx5

## 4-hydroxytamoxifen
MCF-7 cells; 0.1µM 4-hydroxytamoxifen, remaining growth
  cell growth reduced to: 72%

## NCCC[C@](N)(C(=O)O)C(F)F (racemic) [DFMO, alpha-difluoromethylornithine]
T-47D
  inhibition of proliferation: 80%
MCF-7 cells; 0.1 mM DFMO, remaining proliferation
  proliferation of MCF-7 cells, % of the controls: 75%
ODC
  ODC activity: fully inhibited
BT-20
  inhibition of proliferation: 50%
[1]; [2]
  Final Tumor Wt. (Mean±SEM): 1276.3±398.6
  % Tumor Growth Inhibition: 19% and 19.2%
[1]; [3]
  Final Tumor Wt. (Mean±SEM): 782.7±111.4
  % Tumor Growth Inhibition: 52% and 51.8%
MCF-7
  inhibition of proliferation: 80%
MCF-7 human breast tumor; DFMO alone 0.5% wt in drinking water, p.o., ad libitum
  tumor growth inhibition (TGI) with respect to control: 44%

## CC(=O)O[C@H]1C(=O)[C@@]2(C)[C@H]([C@H](OC(=O)c3ccccc3)[C@]3(O)C[C@H](OC(=O)[C@H](O)[C@@H](NC(=O)c4ccccc4)c4ccccc4)C(C)=C1C3(C)C)[C@]1(OC(C)=O)CO[C@@H]1C[C@@H]2O [Taxol]
[1]; [4]
  Final Tumor Wt. (Mean±SEM): 301.6±72.9
  % Tumor Growth Inhibition: 83.7%
[1]; taxol alone 20 mg/kg, i.p., qdx5, listed as taxol
  % Tumor Growth Inhibition: 84%
MCF-7 human breast tumor; taxol alone 16 mg/kg, i.p., qdx5
  tumor growth inhibition (TGI) with respect to control: 28%
